Here are results for 20 molecules from ChEMBL document CHEMBL3259525, “Plasmepsin inhibitory activity and structure-guided optimization of a potent hydroxyethylamine-based antimalarial hit” (ACS Med Chem Lett, 2014).

Assay [1] deals with Plasmepsin I (Plasmodium falciparum, UniProt P39898). The experiment in a line: Inhibition of Plasmodium falciparum plasmepsin-1 using DABCYL-Glu-Arg-Nle-Phe-Leu-Ser-Phe-Pro-EDANS as substrate preincubated for 30 mins by FRET assay.
Assay [2] deals with Plasmepsin II (Plasmodium falciparum, UniProt P46925). The experiment in a line: Inhibition of Plasmodium falciparum plasmepsin-2 using DABCYL-Glu-Arg-Nle-Phe-Leu-Ser-Phe-Pro-EDANS as substrate preincubated for 30 mins by FRET assay.
Plasmepsin II, sequence (P46925 whole entry): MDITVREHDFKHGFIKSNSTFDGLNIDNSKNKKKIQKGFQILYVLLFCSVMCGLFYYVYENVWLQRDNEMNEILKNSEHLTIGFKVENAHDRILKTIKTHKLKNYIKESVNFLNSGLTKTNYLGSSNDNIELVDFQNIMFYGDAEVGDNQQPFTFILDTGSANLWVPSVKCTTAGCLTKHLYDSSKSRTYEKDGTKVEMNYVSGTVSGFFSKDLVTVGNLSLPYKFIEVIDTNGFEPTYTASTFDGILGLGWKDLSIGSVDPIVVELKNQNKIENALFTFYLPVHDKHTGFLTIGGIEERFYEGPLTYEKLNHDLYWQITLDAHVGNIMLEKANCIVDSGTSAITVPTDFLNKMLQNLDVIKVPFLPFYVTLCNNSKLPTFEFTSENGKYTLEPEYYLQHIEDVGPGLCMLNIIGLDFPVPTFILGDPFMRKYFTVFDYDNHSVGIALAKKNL
Assay [3] is described as follows: Inhibition of Plasmodium falciparum plasmepsin-4 using DABCYL-Glu-Arg-Nle-Phe-Leu-Ser-Phe-Pro-EDANS as substrate preincubated for 30 mins by FRET assay.
Assay [4] has as its target Cathepsin D (Homo sapiens, UniProt P07339). Description: Inhibition of human cathepsin-D using DABCYL-Glu-Arg-Nle-Phe-Leu-Ser-Phe-Pro-EDANS as substrate preincubated for 30 mins by FRET assay.
For assay [5], the system named is Plasmodium falciparum. The experiment in a line: Antimalarial activity against blood-stage Plasmodium falciparum 3D7 assessed as inhibition of parasite growth after 96 hrs by SYBR Green I assay. In kind it is functional, organism-based. Particulars: 3D7, 96 h.
In assay [6] the test system is Plasmodium falciparum. The experiment in a line: Antimalarial activity against intra erythrocytic Plasmodium falciparum assessed as inhibition of parasite growth. The assay is classed as functional, organism-based.

One may read the IC50 as the concentration that gives 50% inhibition.

Cathepsin D, sequence (P07339 65-162 limits assumed): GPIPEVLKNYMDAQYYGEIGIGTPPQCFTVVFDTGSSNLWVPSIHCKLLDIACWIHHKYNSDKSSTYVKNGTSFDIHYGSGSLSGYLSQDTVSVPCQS
Cathepsin D, sequence (P07339 169-412 limits assumed): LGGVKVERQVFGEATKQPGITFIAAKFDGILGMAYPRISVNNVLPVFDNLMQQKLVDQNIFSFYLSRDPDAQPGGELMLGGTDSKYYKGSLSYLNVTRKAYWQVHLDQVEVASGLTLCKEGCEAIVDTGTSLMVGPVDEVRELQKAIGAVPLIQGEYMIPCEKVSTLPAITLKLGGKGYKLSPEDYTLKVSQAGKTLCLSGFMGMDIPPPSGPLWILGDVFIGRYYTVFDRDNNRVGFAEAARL
Plasmepsin I, sequence (P39898 whole entry): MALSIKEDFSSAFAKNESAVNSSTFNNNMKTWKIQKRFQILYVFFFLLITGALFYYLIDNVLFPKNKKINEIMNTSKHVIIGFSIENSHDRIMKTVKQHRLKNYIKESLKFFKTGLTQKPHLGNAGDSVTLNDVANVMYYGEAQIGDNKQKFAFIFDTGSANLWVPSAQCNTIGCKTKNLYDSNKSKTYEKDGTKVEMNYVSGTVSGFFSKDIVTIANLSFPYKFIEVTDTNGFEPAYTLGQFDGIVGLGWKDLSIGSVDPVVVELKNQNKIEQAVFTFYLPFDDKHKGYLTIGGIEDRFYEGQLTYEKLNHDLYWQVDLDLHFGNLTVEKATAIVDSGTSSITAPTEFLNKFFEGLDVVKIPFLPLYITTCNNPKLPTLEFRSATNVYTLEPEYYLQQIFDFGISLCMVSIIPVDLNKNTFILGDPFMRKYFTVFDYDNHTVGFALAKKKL

In the case of `CCCN(CCC)C(=O)c1cc(C(=O)N[C@@H](Cc2ccccc2)[C@H](O)CNC2(c3cccc(OC)c3)CC2)cc(N2CCCCC2)c1`, the IC50 in assay [1] is 330 nM; in assay [2], 150 nM; in assay [3] it was 25 nM; in assay [4], 100 nM.

With `CCCN(CCC)C(=O)c1cc(C(=O)N[C@@H](Cc2ccccc2)[C@H](O)CNC(C)(C)c2cccc(OC)c2)cc(-c2ccccc2)c1`, the IC50 was found to be 250 nM in assay [1]; 72 nM in assay [2]; 6 nM in assay [3]; 54 nM in assay [4]; 2 nM in assay [5].

`CCCN(CCC)C(=O)c1cc(C(=O)N[C@@H](Cc2ccccc2)[C@H](O)CNC(C)(C)c2ccccc2)cc(N2CCCCC2)c1`: the IC50 in assay [1] is 380 nM; in assay [2], 110 nM; in assay [3] it was 23 nM; in assay [4] it was 51 nM.

As for `CCCN(CCC)C(=O)c1cc(C(=O)N[C@@H](Cc2ccccc2)[C@H](O)CNCc2cccc(OC)c2)cc(N2CCCCC2)c1`, the IC50 in assay [1] turned out to be 6100 nM; in assay [2], 600 nM; in assay [3] it was 180 nM; in assay [4], 200 nM.

On to `CCCN(CCC)C(=O)c1cc(C(=O)N[C@@H](Cc2ccccc2)[C@@H](O)CNC(C)(C)c2cccc(OC)c2)cc(N2CCCCS2(=O)=O)c1`, for which the concentration for half-maximal inhibition (IC50) in assay [1] worked out at 18000 nM; in assay [2] it was 14000 nM; in assay [3] it was 470 nM; in assay [4], 4400 nM; in assay [5], 200 nM.

For `CCCN(CCC)C(=O)c1cc(C(=O)N[C@@H](Cc2ccccc2)[C@H](O)CNC(C)(C)c2ccccc2)cc(N2CCCCS2(=O)=O)c1`, the IC50 stood at 2300 nM in assay [1], 320 nM in assay [2], 48 nM in assay [3] and 120 nM in assay [4].

Take `CCCN(CCC)C(=O)c1cc(C(=O)N[C@@H](Cc2ccccc2)[C@@H](O)CNC(C)(C)c2ccccc2)cc(N2CCCCS2(=O)=O)c1`: the IC50 in assay [1] was found to be 45000 nM; in assay [2], 24000 nM; in assay [3], 720 nM; in assay [4] it was 5800 nM.

`COc1cccc(C(C)(C)NC[C@@H](O)[C@H](Cc2ccccc2)NC(=O)c2cc(C(N)=O)cc(N3CCCCC3)c2)c1`: the IC50 came to 7600 nM in assay [1], 4400 nM in assay [2], 170 nM in assay [3] and 500 nM in assay [4].

Turning to `CCCN(CCC)C(=O)c1cc(C(=O)N[C@@H](Cc2ccccc2)[C@H](O)CNCc2cccc(OC)c2)cc(N2CCCCS2(=O)=O)c1`, the IC50 in assay [1] was found to be 18000 nM; in assay [2], 2700 nM; in assay [3] it was 200 nM; in assay [4], 360 nM.

For `CCCN(CCC)C(=O)c1cc(C(=O)N[C@@H](Cc2ccccc2)[C@H](O)CNC(C)(C)c2ccncc2)cc(N2CCCCC2)c1`, the half-inhibitory concentration (IC50) in assay [1] stood at 470 nM; in assay [2], 270 nM; in assay [3], 90 nM; in assay [4], 170 nM.

Turning to `CCCN(CCC)C(=O)c1cc(C(=O)N[C@@H](Cc2ccccc2)[C@H](O)CNC(C)(C)c2cccc(O)c2)cc(N2CCCCC2)c1`, the IC50 in assay [1] is 360 nM; in assay [2] it was 100 nM; in assay [3] it was 19 nM; in assay [4] it was 40 nM.

Regarding `CCCNC(=O)c1cc(C(=O)N[C@@H](Cc2ccccc2)[C@H](O)CNC(C)(C)c2cccc(OC)c2)cc(N2CCCCC2)c1`, the IC50 worked out at 750 nM in assay [1], 500 nM in assay [2], 38 nM in assay [3] and 110 nM in assay [4].

In the case of `CCCN(CCC)C(=O)c1cc(C(=O)N[C@@H](Cc2ccccc2)[C@H](O)CNC(C)(C)c2cccc(OC)c2)cc(N2CCCC2)c1`, the IC50 in assay [1] was determined as 430 nM; in assay [2], 120 nM; in assay [3], 7 nM; in assay [4], 32 nM; in assay [5], 4 nM.

For the molecule `CCCN(CCC)C(=O)c1cc(C(=O)N[C@@H](Cc2ccccc2)[C@H](O)CNC(C)(C)c2cccc(OC)c2)cc(C2CCCCC2)c1`, the 50% inhibitory concentration (IC50) was 200 nM in assay [1], 36 nM in assay [2], 25 nM in assay [3] and 19 nM in assay [4].

For `CCCN(CCC)C(=O)c1cc(C(=O)N[C@@H](Cc2ccccc2)[C@H](O)CNC(C)(C)c2cccc(OC)c2)cc(N2CCCCC2)c1`, the IC50 was determined as 300 nM in assay [1]; 70 nM in assay [2]; 24 nM in assay [3]; 42 nM in assay [4]; 6 nM in assay [5].

For `CCCN(CCC)C(=O)c1cc(C(=O)N[C@@H](Cc2ccccc2)[C@H](O)CNC(C)(C)c2ccccn2)cc(N2CCCCC2)c1`, the IC50 in assay [1] is 4100 nM; in assay [2] it was 800 nM; in assay [3], 250 nM; in assay [4], 350 nM.

Take `COc1cccc(C(C)(C)NC[C@@H](O)[C@H](Cc2ccccc2)NC(=O)c2cc(C(=O)N3CCCC3)cc(N3CCCCC3)c2)c1`: the 50% inhibitory concentration (IC50) is 1600 nM in assay [1], 500 nM in assay [2], 110 nM in assay [3] and 38 nM in assay [4].

Turning to `CCCN(CCC)C(=O)c1cc(C(=O)N[C@@H](Cc2ccccc2)[C@H](O)CNC(C)(C)c2cncc(OC)c2)cc(N2CCCCC2)c1`, the concentration for half-maximal inhibition (IC50) was determined as 600 nM in assay [1], 190 nM in assay [2], 23 nM in assay [3] and 68 nM in assay [4].

Take `CCCN(CCC)C(=O)c1cc(C(=O)N[C@@H](Cc2ccccc2)[C@H](O)CNC(C)(C)c2cccc(OC)c2)cc(N2CCCCS2(=O)=O)c1`: the half-inhibitory concentration (IC50) amounted to 30 nM in assay [6]; 700 nM in assay [1]; 150 nM in assay [2]; 29 nM in assay [3]; 43 nM in assay [4]; 2 nM in assay [5].

On to `CCCN(CCC)C(=O)c1cc(C(=O)N[C@@H](Cc2ccccc2)[C@H](O)CNC(C)(C)c2cccnc2)cc(N2CCCCC2)c1`, for which the half-inhibitory concentration (IC50) in assay [1] was 350 nM; in assay [2] it was 190 nM; in assay [3], 64 nM; in assay [4] it was 140 nM.
